Columns and labels:
Type in all cases: in vivo
[1] = tested on: Twospotted Spider Mite (Tetranychus Urticae Koch); assay: Efficacy test against twospotted spider mite, spray on kidney bean plant; conditions: 125 ppm, wettable powder diluted with water, sprayed, female adults with resistance to an organophosphorus agent on kidney bean, after 3 days
[2] = tested on: Rice Armyworm (Mythimna Separata); assay: Efficacy test against rice armyworm, corn leaf dip; conditions: 125 ppm, emulsifiable concentrate diluted with water, corn leaves immersed, second instar larvae, after 5 days, 25° C.
Summary of the method: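 Corn leaves dipped 30 s in compound diluted to 125 ppm from an emulsifiable concentrate, air-dried, then offered to five second-instar larvae. Held at 25° C and 65% humidity; mortality scored after 5 days as dead/released ×100. Run in duplicate.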

[3] = tested on: Sweetpotato Whitefly (Bemisia Tabaci); assay: Efficacy test against sweetpotato whitefly, sprayed tomato leaf; conditions: 125 ppm, emulsifiable concentrate diluted with water, adults (type B), after 2 days, 25° C.
Summary of the method: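 Cut tomato leaves were sprayed with an emulsifiable concentrate diluted to 125 ppm compound, air-dried, then infested with seven pairs of type B adults. Leaves were held at 25 °C and 65% humidity, and mortality was counted after 2 days as dead/released × 100. The test was run twice.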

[4] = tested on: Cotton Aphid (Aphis Gossypii); assay: Efficacy test against cotton aphid, spray on cucumber plant; conditions: 125 ppm, emulsifiable concentrate diluted with water, sprayed over cucumber plant with nymphs, after 5 days, 25° C.
Summary of the method: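 Cucumber plants (~10 days after sprouting) carrying nymphs deposited by cotton aphid adults over 1 day were sprayed with emulsifiable concentrate diluted to 125 ppm compound. Plants were kept at 25 °C and 65% humidity. Mortality after 5 days gave the insecticidal rate (dead/released ×100), from two replicates.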

C=C1SC(=Nc2ccc(OC)cc2)C(=CSc2ccc([Si](C)(C)C)s2)CC1(C)C [Compound 2-103]
100%: adulticidal rate [1] | insecticidal rate [2] | insecticidal rate [3] | insecticidal rate [4]

C=C1SC(=Nc2ccc(C)cc2)C(=CSc2cccc(C)c2)CC1(C)C [Compound 2-110]
100%: adulticidal rate [1] | insecticidal rate [2] | insecticidal rate [3] | insecticidal rate [4]

C=C1SC(=Nc2ccc(OC)cc2)C(=CSc2ccc(Br)s2)CC1(C)C [Compound 2-117]
100%: adulticidal rate [1] | insecticidal rate [2] | insecticidal rate [3] | insecticidal rate [4]

C=C1SC(=Nc2ccc(C)cc2)C(=CSc2ccc(F)cc2F)CC1(C)C [Compound 2-124]
100%: adulticidal rate [1] | insecticidal rate [2] | insecticidal rate [3] | insecticidal rate [4]

C=C1SC(=Nc2ccc(C)c(C)c2)C(=CSc2ccccc2)CC1(C)C [Compound 2-148]
100%: adulticidal rate [1] | insecticidal rate [2] | insecticidal rate [3] | insecticidal rate [4]

C=C1SC(=Nc2ccc(C)c(C)c2)C(=CSc2cccs2)CC1(C)C [Compound 2-149]
100%: adulticidal rate [1] | insecticidal rate [2] | insecticidal rate [3] | insecticidal rate [4]

C=C1SC(=Nc2ccc(C)c(C)c2)C(=CSc2ccc(F)cc2)CC1(C)C [Compound 2-150]
100%: adulticidal rate [1] | insecticidal rate [2] | insecticidal rate [3] | insecticidal rate [4]

From patent US9012493B2, “1-heterodiene derivative and pest control agent” (Nippon Soda Co., Ltd., priority 2009, dated 2015)
